Measurements: US9149038B2, “4-amino-6-(heterocyclic)picolinates and 6-amino-2-(heterocyclic)pyrimidine-4-carboxylates and their use as herbicides” (Dow AgroSciences LLC, priority 2013, dated 2015)
Read-outs that look alike come from different tables or passages of the source.

Experiments:
[1] = tested on: Key Broadleaf Weed and Crop Species; assay: Post-Emergent Test II: postemergent herbicidal activity, visual rating after 14 d (Table 7); assay type: in vivo; conditions: post-emergence, 336 h; for pest or weed control at 35 g/ha: 35 g ai/ha; for pest or weed control at 70 g/ha: 70 g ai/ha; for pest or weed control at 140 g/ha: 140 g ai/ha
How it was run: (§1)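 Post-emergence foliar spray, 187 L/ha, first/second true leaf stage plants in potting mix (pH 6.0-6.8). Rates: top rate and 2-fold serial dilutions to 1/16×. Solvent-blank controls. Readout: visual % kill at 14 d.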

[2] = tested on: Key Grass and Sedge Weeds as well as Grass Crops; assay: Post-Emergent Test II: postemergent herbicidal activity, visual rating after 14 d (Table 8); assay type: in vivo; conditions: post-emergence, 336 h; for pest or weed control at 35 g/ha: 35 g ai/ha; for pest or weed control at 70 g/ha: 70 g ai/ha; for pest or weed control at 140 g/ha: 140 g ai/ha
How it was run: as §1

[3] = lambsquarters (Chenopodium album), read-out: Visual Growth Reduction (%) 14 Days After Application CHEAL
[4] = oilseed rape, canola (Brassica napus), read-out: Visual Growth Reduction (%) 14 Days After Application BRSNN
[5] = redroot pigweed (Amaranthus retroflexus), read-out: Visual Growth Reduction (%) 14 Days After Application AMARE
[6] = sunflower (Helianthus annuus), read-out: Visual Growth Reduction (%) 14 Days After Application HELAN
[7] = velvetleaf (Abutilon theophrasti), read-out: Visual Growth Reduction (%) 14 Days After Application ABUTH
[8] = wild poinsettia (Euphorbia heterophylla), read-out: Visual Growth Reduction (%) 14 Days After Application EPHHL
[9] = barnyardgrass (Echinochloa crus-galli), read-out: Visual Growth Reduction (%) 14 Days After Application ECHCG
[10] = giant foxtail (Setaria faberi), read-out: Visual Growth Reduction (%) 14 Days After Application SETFA
[11] = maize, corn (Zea mays), read-out: Visual Growth Reduction (%) 14 Days After Application ZEAMX
[12] = rice (Oryza sativa), read-out: Visual Growth Reduction (%) 14 Days After Application ORYSA
[13] = wheat, spring (Triticum aestivum), read-out: Visual Growth Reduction (%) 14 Days After Application TRZAS
[14] = yellow nutsedge (Cyperus esculentus), read-out: Visual Growth Reduction (%) 14 Days After Application CYPES

COc1c(N)nc(-c2cc3c(cc2F)OC(F)(F)O3)nc1C(=O)O [Compound 68]
pest or weed control at 35 g/ha [1, 3]: 0 to 29%
pest or weed control at 70 g/ha [1, 3]: 0 to 29%
pest or weed control at 140 g/ha [1, 3]: 0 to 29%
pest or weed control at 35 g/ha [1, 4]: 0 to 29%
pest or weed control at 70 g/ha [1, 4]: 0 to 29%
pest or weed control at 140 g/ha [1, 4]: 0 to 29%
pest or weed control at 35 g/ha [1, 5]: 0 to 29%
pest or weed control at 70 g/ha [1, 5]: 0 to 29%
pest or weed control at 140 g/ha [1, 5]: 0 to 29%
pest or weed control at 35 g/ha [1, 6]: 30 to 44%
pest or weed control at 70 g/ha [1, 6]: 45 to 59%
pest or weed control at 140 g/ha [1, 6]: 60 to 74%
pest or weed control at 35 g/ha [1, 7]: 0 to 29%
pest or weed control at 70 g/ha [1, 7]: 0 to 29%
pest or weed control at 140 g/ha [1, 7]: 0 to 29%
pest or weed control at 35 g/ha [1, 8]: 75 to 84%
pest or weed control at 70 g/ha [1, 8]: 95 to 100%
pest or weed control at 140 g/ha [1, 8]: 95 to 100%
pest or weed control at 35 g/ha [2, 9]: 60 to 74%
pest or weed control at 70 g/ha [2, 9]: 60 to 74%
pest or weed control at 140 g/ha [2, 9]: 75 to 84%
pest or weed control at 35 g/ha [2, 10]: 60 to 74%
pest or weed control at 70 g/ha [2, 10]: 60 to 74%
pest or weed control at 140 g/ha [2, 10]: 60 to 74%
pest or weed control at 35 g/ha [2, 11]: 45 to 59%
pest or weed control at 70 g/ha [2, 11]: 60 to 74%
pest or weed control at 140 g/ha [2, 11]: 75 to 84%
pest or weed control at 35 g/ha [2, 12]: 0 to 29%
pest or weed control at 70 g/ha [2, 12]: 0 to 29%
pest or weed control at 140 g/ha [2, 12]: 0 to 29%
pest or weed control at 35 g/ha [2, 13]: 0 to 29%
pest or weed control at 70 g/ha [2, 13]: 45 to 59%
pest or weed control at 140 g/ha [2, 13]: 45 to 59%
pest or weed control at 35 g/ha [2, 14]: 0 to 29%
pest or weed control at 70 g/ha [2, 14]: 0 to 29%
pest or weed control at 140 g/ha [2, 14]: 0 to 29%
